Source: PubChem BioAssay AID328 (DTP/NCI, 2004)
“And” between values parts separate entries of the source, which are not always exact repeats. Equal entries are not always repeated. Inconclusive results and toxic doses are left out.

Tested on: BDF1 mice, P388 leukemia ip, median survival T/C
Assay: NCI In Vivo Anticancer Drug Screen. Data for tumor model P388 Leukemia (intraperitoneal) in B6D2F1 (BDF1) mice
Settings: endpoint: median survival time, higher = longer survival
Method in brief: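 Antitumour effect was judged in vivo: survival in drug-treated mice, normalised to that of vehicle-dosed controls, gives the reported T/C.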

[1] = dose: 25.0 mg/kg/injection, schedule: Q01DX009 (ip), vehicle: Klucel (hydroxypropylcellulose) (HPC)
[2] = dose: 50.0 mg/kg/injection, schedule: Q01DX009 (ip), vehicle: Klucel (hydroxypropylcellulose) (HPC)
[3] = dose: 100.0 mg/kg/injection, schedule: Q01DX009 (ip), vehicle: Klucel (hydroxypropylcellulose) (HPC)
[4] = dose: 100.0 mg/kg/injection, schedule: Q04DX003 (ip), vehicle: saline sonified
[5] = dose: 200.0 mg/kg/injection, schedule: Q01DX009 (ip), vehicle: Klucel (hydroxypropylcellulose) (HPC)
[6] = dose: 200.0 mg/kg/injection, schedule: Q04DX003 (ip), vehicle: saline sonified
[7] = dose: 100.0 mg/kg/injection, schedule: Q04DX003 (ip), vehicle: Klucel (hydroxypropylcellulose) (HPC)
[8] = dose: 200.0 mg/kg/injection, schedule: Q04DX003 (ip), vehicle: Klucel (hydroxypropylcellulose) (HPC)
[9] = dose: 400.0 mg/kg/injection, schedule: Q01DX009 (ip), vehicle: Klucel (hydroxypropylcellulose) (HPC)
[10] = dose: 400.0 mg/kg/injection, schedule: Q04DX003 (ip), vehicle: Klucel (hydroxypropylcellulose) (HPC)

O=NN(CCCl)C(=O)NCC1CCC(CNC(=O)N(CCCl)N=O)CC1 (configuration not stated)
T/C (dose: 3.13 mg/kg/injection, schedule: Q01DX009 (ip), vehicle: other): 113 % of control | T/C (dose: 6.25 mg/kg/injection, schedule: Q01DX009 (ip), vehicle: other): 122 % of control | T/C (dose: 12.5 mg/kg/injection, schedule: Q01DX009 (ip), vehicle: other): 116 % of control | T/C [1]: 154 % of control | T/C (dose: 26.4 mg/kg/injection, schedule: Q01DX009 (ip), vehicle: other): 154 % of control | T/C (dose: 40.0 mg/kg/injection, schedule: Q01DX009 (ip), vehicle: other): 159 % of control | T/C (dose: 44.0 mg/kg/injection, schedule: Q01DX009 (ip), vehicle: other): 227 % of control | T/C [2]: 115 % of control | T/C (dose: 66.0 mg/kg/injection, schedule: Q01DX009 (ip), vehicle: other): 240 % of control | T/C (dose: 66.0 mg/kg/injection, schedule: Q04DX003 (ip), vehicle: saline sonified): 170 % of control | T/C [3]: 169 % of control | T/C (dose: 100.0 mg/kg/injection, schedule: Q01DX009 (ip), vehicle: other): 272 % of control and 300 % of control | T/C [4]: 175 % of control and 185 % of control | T/C (dose: 150.0 mg/kg/injection, schedule: Q01DX009 (ip), vehicle: other): 245 % of control | T/C (dose: 150.0 mg/kg/injection, schedule: Q04DX003 (ip), vehicle: saline sonified): 180 % of control | T/C [5]: 176 % of control | T/C [6]: 240 % of control

CCOC(=O)C(C#N)C(C)CC (configuration not stated)
T/C [1]: 90 % of control | T/C [2]: 104 % of control | T/C [3]: 100 % of control | T/C [7]: 87 % of control | T/C [5]: 95 % of control | T/C [8]: 104 % of control | T/C [9]: 90 % of control | T/C [10]: 95 % of control

COc1ccc(OC(=O)N2C=Cc3ccccc3C2C#N)cc1 (configuration not stated)
T/C (dose: 50.0 mg/kg/injection, schedule: Q04DX003 (ip), vehicle: saline): 95 % of control | T/C (dose: 100.0 mg/kg/injection, schedule: Q04DX003 (ip), vehicle: saline): 100 % of control | T/C (dose: 200.0 mg/kg/injection, schedule: Q04DX003 (ip), vehicle: saline): 112 % of control

C=CCCCCCCCCC(=O)NCC1CC1
T/C (dose: 100.0 mg/kg/injection, schedule: Q01DX009 (ip), vehicle: saline with Tween-80): 100 % of control | T/C (dose: 200.0 mg/kg/injection, schedule: Q01DX009 (ip), vehicle: saline with Tween-80): 90 % of control | T/C (dose: 400.0 mg/kg/injection, schedule: Q01DX009 (ip), vehicle: saline with Tween-80): 86 % of control

O=S(=O)(O/C1=C/CCCCCC1)C(F)(F)C(F)(F)C(F)(F)C(F)(F)F
T/C (dose: 50.0 mg/kg/injection, schedule: Q01DX009 (ip), vehicle: saline): 107 % of control | T/C (dose: 100.0 mg/kg/injection, schedule: Q01DX009 (ip), vehicle: saline): 109 % of control | T/C (dose: 200.0 mg/kg/injection, schedule: Q01DX009 (ip), vehicle: saline): 109 % of control

CCOc1ccc(NC(=O)C23CC4CC(CC(C4)C2)C3)cc1
T/C (dose: 12.5 mg/kg/injection, schedule: Q01DX009 (ip), vehicle: saline with Tween-80): 100 % of control | T/C (dose: 25.0 mg/kg/injection, schedule: Q01DX009 (ip), vehicle: saline with Tween-80): 100 % of control | T/C (dose: 50.0 mg/kg/injection, schedule: Q01DX009 (ip), vehicle: saline with Tween-80): 100 % of control

O=C(c1ccccc1Br)C(Br)C(Br)c1ccccc1 (configuration not stated)
T/C [7]: 120 % of control | T/C [8]: 110 % of control

CC1C(=O)OC(C)(C)OC1=O
T/C [1]: 106 % of control | T/C (dose: 25.0 mg/kg/injection, schedule: Q04DX003 (ip), vehicle: Klucel (hydroxypropylcellulose) (HPC)): 91 % of control | T/C [2]: 97 % of control | T/C (dose: 50.0 mg/kg/injection, schedule: Q04DX003 (ip), vehicle: Klucel (hydroxypropylcellulose) (HPC)): 123 % of control | T/C [3]: 105 % of control | T/C [7]: 97 % of control | T/C [5]: 104 % of control | T/C [8]: 94 % of control | T/C [9]: 99 % of control | T/C [10]: 106 % of control

Nc1nc(SCc2ccc([N+](=O)[O-])cc2)c2[nH]cnc2n1
T/C [4]: 110 % of control | T/C [6]: 110 % of control | T/C (dose: 400.0 mg/kg/injection, schedule: Q04DX003 (ip), vehicle: saline sonified): 100 % of control
